# Data as given in ChEMBL document CHEMBL6127119 (J Med Chem, 2024).
# Activity calls are given as the source filed them. The rule behind the calls is not given here.
# How the values were obtained:
# [1] = Volume of distribution at steady state in CD-1 mouse at 10 mg/kg, iv measured for 24 hrs by UPLC analysis; assay type: ADME, organism-based; settings: in vivo, read-out: Vdss
# [2] = system: Enterococcus faecium; assay: Bacteriostatic activity against Enterococcus faecium SC-2022-D2-059 harboring VanA phenotype at 1 to 8 times MIC measured after 24 hrs by time kill assay; assay type: functional, organism-based
# [3] = system: Staphylococcus aureus; assay: Antibacterial activity against vancomycin-intermediate Staphylococcus aureus incubated for 16 to 24 hrs by CLSI based broth microdilution method; assay type: functional; settings: time 16-24 hrs
# [4] = system: Staphylococcus aureus; assay: Antibacterial activity against methicillin-susceptible Staphylococcus aureus incubated for 16 to 24 hrs by CLSI based broth microdilution method; assay type: functional; settings: time 16-24 hrs
# [5] = system: Enterococcus faecium; assay: Antibacterial activity against vancomycin-resistant Enterococcus faecium harboring VanA phenotype incubated for 16 to 24 hrs by CLSI based broth microdilution method; assay type: functional; settings: time 16-24 hrs
# [6] = system: Acinetobacter baumannii; assay: Potency index, ratio of Vancomycin MIC to test compound MIC for Carbapenem-resistant Acinetobacter baumannii clinical isolate incubated for 16 to 24 hrs by CLSI based broth microdilution method; assay type: functional; settings: time 16-24 hrs
# [7] = system: Escherichia coli; assay: Antibacterial activity against Escherichia coli AB1157 incubated for 16 to 24 hrs by CLSI based broth microdilution method; assay type: functional; settings: time 16-24 hrs
# [8] = Hemolytic activity in rat RBC upto 100 ug/ml incubated for 1 hr by absorbance based assay; assay type: toxicity, cell-based; settings: erythrocyte, dose < 100 µg/ml
# [9] = AUClast in CD-1 mouse at 10 mg/kg, iv measured for 24 hrs by UPLC analysis; assay type: ADME, organism-based; settings: in vivo
# [10] = system: Staphylococcus aureus; assay: Post-antibiotic effect in Staphylococcus aureus MRSA252 assessed as time of effect at 10 times; assay type: functional
# [11] = system: Staphylococcus aureus; assay: Antibacterial activity against methicillin-resistant Staphylococcus aureus clinical isolate incubated for 16 to 24 hrs by CLSI based broth microdilution method; assay type: functional; settings: time 16-24 hrs
# [12] = system: Peptidoglycan; assay: Binding affinity to Ac-Lys(Gly5)-D-Ala-D-Ala lipid II model peptide moiety assessed as association constant by ITC analysis
# [13] = system: Staphylococcus aureus; assay: Induction of membrane disruption in Staphylococcus aureus MRSA252 assessed as leakage of protoplasm content at 1 to 8 ug/ml incubated for 4 to 24 hrs by TEM analysis; assay type: functional, organism-based; settings: dose 1-8 µg/ml, time 4-24 hrs
# [14] = system: Klebsiella pneumoniae; assay: Antibacterial activity against Klebsiella pneumoniae clinical isolate incubated for 16 to 24 hrs by CLSI based broth microdilution method; assay type: functional; settings: time 16-24 hrs
# [15] = system: Enterococcus faecalis; assay: Induction of inner membrane permeabilization in Enterococcus faecalis ATCC29212 measured for 20 mins by DiSC3(5) staining based analysis; assay type: functional, organism-based; settings: dose 1-128 µg/ml
# [16] = system: Staphylococcus haemolyticus; assay: Antibacterial activity against methicillin-resistant Staphylococcus haemolyticus clinical isolate incubated for 16 to 24 hrs by CLSI based broth microdilution method; assay type: functional; settings: time 16-24 hrs
# [17] = system: Escherichia coli; assay: Induction of inner membrane permeabilization in Escherichia coli AB1157 measured for 50 mins by PI staining based analysis; assay type: functional, organism-based; settings: dose 1-128 µg/ml
# [18] = system: Staphylococcus aureus; assay: Inhibition of peptidoglycan biosynthesis in Staphylococcus aureus MRSA252 assessed as increase in accumulation of Park's nucleotide at 0.5 ug/ml incubated for 2 hrs by RP-HPLC analysis; assay type: functional, organism-based; settings: dose 0.5 µg/ml
# [19] = AUC (infinity) in CD-1 mouse at 10 mg/kg, iv measured for 24 hrs by UPLC analysis; assay type: ADME, organism-based; settings: in vivo
# [20] = system: Staphylococcus aureus; assay: Post-antibiotic effect in Staphylococcus aureus MRSA252 assessed as time of effect at 20 times; assay type: functional
# [21] = system: Escherichia coli; assay: Induction of cytoplasmic membrane permeabilization in Escherichia coli AB1157 at 16 ug/ml measured for 40 mins by PI/NPN staining based assay; assay type: functional, organism-based; settings: dose 16.0 µg/ml
# [22] = system: Enterococcus faecium; assay: Antibacterial activity against Enterococcus faecium clinical isolate incubated for 16 to 24 hrs by CLSI based broth microdilution method; assay type: functional; settings: time 16-24 hrs
# [23] = system: Staphylococcus aureus; assay: Antibacterial activity against Staphylococcus aureus Mu50 at 1:1 ratio of compound and FPP at […] incubated for 16 to 24 hrs by absorbance based assay; assay type: functional, organism-based; settings: dose 128.0 µg/ml, time 16-24 hrs
# [24] = system: Staphylococcus aureus; assay: Post-antibiotic effect in Staphylococcus aureus MRSA252 at 10 times measured after 7 hrs; assay type: functional, organism-based
# [25] = system: Peptidoglycan; assay: Binding affinity to Ac-Lys(D-isoAsp)-D-Ala-D-Ala lipid II model peptide moiety assessed as association constant by ITC analysis
# [26] = system: Staphylococcus hominis; assay: Antibacterial activity against methicillin-resistant Staphylococcus hominis clinical isolate incubated for 16 to 24 hrs by CLSI based broth microdilution method; assay type: functional; settings: time 16-24 hrs
# [27] = system: Staphylococcus epidermidis; assay: Antibacterial activity against methicillin-resistant Staphylococcus epidermidis clinical isolate incubated for 16 to 24 hrs by CLSI based broth microdilution method; assay type: functional; settings: time 16-24 hrs
# [28] = system: Acinetobacter baumannii; assay: Potency index, ratio of Norvancomycin MIC to test compound MIC for Carbapenem-resistant Acinetobacter baumannii clinical isolate incubated for 16 to 24 hrs by CLSI based broth microdilution method; assay type: functional; settings: time 16-24 hrs
smiles,measurement,setting,value
CC(C)C[C@@H](N)C(=O)N[C@H]1C(=O)N[C@@H](CC(N)=O)C(=O)N[C@H]2C(=O)N[C@H]3C(=O)N[C@H](C(=O)N[C@H](C(=O)NCc4ccc(-c5ccc(CNC(=N)N)cc5)cc4)c4cc(O)cc(O)c4-c4cc3ccc4O)[C@H](O)c3ccc(c(Cl)c3)Oc3cc2cc(c3O[C@@H]2O[C@H](CO)[C@@H](O)[C@H](O)[C@H]2O[C@H]2C[C@](C)(N)[C@H](O)[C@H](C)O2)Oc2ccc(cc2Cl)[C@H]1O,Vd,[1],5.12 L/kg
same,Activity,[2],Active
same,MIC,[3],1 µg/mL
same,MIC,[4],≤ 0.063 µg/mL
same,MIC,[5],4 µg/mL
same,Ratio,[6],2
same,MIC,[7],8 µg/mL
same,Activity,[8],Non-Toxic
same,AUC(0-t) at 24 h,[9],28400 ng·h/mL
same,Time,[10],6 h
same,MIC,[11],≤ 0.03 µg/mL
same,Ka,[12],2.32e+06 M⁻¹
same,Activity,[13],Active
same,MIC,[14],> 128 µg/mL
same,Activity,[15],Dose-Dependent Effect
same,MIC,[16],≤ 0.03 µg/mL
same,Activity,[17],Dose-Dependent Effect
same,Activity,[18],Active
same,AUC(0-inf),[19],40000 ng·h/mL
same,Time,[20],23 h
same,Activity,[21],Active
same,MIC,[22],≤ 0.03 µg/mL
same,Activity,[23],Active
same,Activity,[24],Active
same,Ka,[25],687000 M⁻¹
same,MIC,[26],≤ 0.03 µg/mL
same,MIC,[27],≤ 0.03 µg/mL
same,Ratio,[28],2
